From ChEMBL document CHEMBL1128611, “Evolution of a series of non-quinoline leukotriene D4 receptor antagonist; synthesis and sar of benzothiazoles and thiazoles substituted benzyl alcohols as potent LTD4 antagonists” (Bioorg Med Chem Lett, 1995)
Where “and” joins values, the source holds several entries; their conditions need not be identical. Equal values may be shown once.

How the values were obtained:
[1] = target: T1, Cysteinyl leukotriene receptor 1 (Cavia porcellus, UniProt Q2NNR5); assay: Inhibition of [3H]LTD4 binding on guinea-pig lung membranes; type: tissue-based, Membrane
T1 sequence (Q2NNR5 whole entry): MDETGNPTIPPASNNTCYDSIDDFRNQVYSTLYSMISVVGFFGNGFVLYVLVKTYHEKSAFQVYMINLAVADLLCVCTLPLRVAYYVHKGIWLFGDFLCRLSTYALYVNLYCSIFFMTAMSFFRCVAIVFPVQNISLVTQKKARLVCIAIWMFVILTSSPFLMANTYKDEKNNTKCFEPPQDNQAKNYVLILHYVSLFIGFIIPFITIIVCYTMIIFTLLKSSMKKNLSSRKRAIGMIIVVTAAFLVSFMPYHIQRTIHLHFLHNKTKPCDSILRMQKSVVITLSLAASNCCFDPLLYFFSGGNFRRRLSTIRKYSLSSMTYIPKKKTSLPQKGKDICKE

Cavia porcellus = organism: Cavia porcellus; assay: Inhibition of LTD4-induced contraction of guinea-pig tracheal chains; type: functional, Trachea
Mus musculus [2] = assay: […] effect on peroximal enzyme induction (PEI) over control animals (mice) after 4 days dosing at 400 mg/Kg perorally; type: functional
Mus musculus [3] = assay: Compound was evaluated for its effect on the liver weight in mice after 4 days dosing at 400 mg/Kg perorally; type: functional
Monkey [4] = assay: […] inhibition of peptidoleukotriene -induced reduction in dynamic compliance in conscious squirrel monkey at a dose of 0.03 mg/Kg; type: functional
Monkey [5] = assay: Inhibition of LTD4-induced bronchoconstriction in conscious squirrel monkey; type: functional
Mus musculus [6] = assay: […] effect on the liver weight in mice after 4 days dosing at 400 mg/Kg perorally; type: functional
Monkey [7] = assay: […] inhibition of peptidoleukotriene -induced reduction in dynamic compliance in conscious squirrel monkey at a dose of 0.1 mg/Kg; type: functional

IC50 [1] | Compound | other results
6.7 nM and 15.4 nM | CC(C)(O)c1ccccc1CC[C@@H](SCC1(CC(=O)O)CC1)c1cccc(/C=C/c2nc(-c3ccc(F)cc3)cs2)c1 | –
0.7 nM and 1 nM | CC(CC(F)(F)F)c1csc(/C=C/c2cccc([C@@H](CCc3ccccc3C(C)(C)O)SCC3(CC(=O)O)CC3)c2)n1 (some centres undefined) | –
1.5 nM | CC(C)(O)c1ccccc1CC[C@@H](SCC1(CC(=O)O)CC1)c1cccc(/C=C/c2nc3c(s2)CCCC3)c1 | –
1.7 nM and 3.3 nM | CC(C)(O)c1ccccc1CC[C@@H](SCC1(CC(=O)O)CC1)c1cccc(/C=C/c2nc(C3CC3)cs2)c1 | –
170 nM and 197 nM | CC(C)c1nc(/C=C/c2cccc([C@@H](CCc3ccccc3C(C)(C)O)SCC3(CC(=O)O)CC3)c2)sc1Cl | –
7.7 nM and 6 nM | CC(C)(O)c1ccccc1CC[C@@H](SCC1(CC(=O)O)CC1)c1cccc(/C=C/c2nc3cc(Cl)ccc3s2)c1 | –
2.1 nM | CC(C)(O)c1ccccc1CC[C@@H](SCC1(CC(=O)O)CC1)c1cccc(/C=C/c2nc(C3CCCCC3)cs2)c1 | –
42.2 nM | CC(C)(O)c1ccccc1CC[C@@H](SCC1(CC(=O)O)CC1)c1cccc(/C=C/c2nc(CSc3ccccc3)cs2)c1 | –
98.7 nM and 138 nM | COc1ccc(-c2csc(/C=C/c3cccc([C@@H](CCc4ccccc4C(C)(C)O)SCC4(CC(=O)O)CC4)c3)n2)cc1 | –
12.8 nM and 5.2 nM | Cc1sc(/C=C/c2cccc([C@@H](CCc3ccccc3C(C)(C)O)SCC3(CC(=O)O)CC3)c2)nc1C(C)C | –
16.8 nM | CC(C)(O)c1ccccc1CC[C@@H](SCC1(CC(=O)O)CC1)c1cccc(/C=C/c2nc3ccccc3s2)c1 | –
7.5 nM and 11.6 nM | CC(C)(O)c1ccccc1CC[C@@H](SCC1(CC(=O)O)CC1)c1cccc(/C=C/c2nc3cc(C(F)(F)F)ccc3s2)c1 | –
381 nM | CC(C)(O)c1ccccc1CC[C@@H](SCC1(CC(=O)O)CC1)c1cccc(/C=C/c2nccs2)c1 | –
1.9 nM | CC(C)c1csc(/C=C/c2cccc([C@@H](CCc3ccccc3C(C)(C)O)SCC3(CC(=O)O)CC3)c2)n1 | pKb (Cavia porcellus): 9.1; PEI (Mus musculus [2]): 62; Weight (Mus musculus [3]): 9%; Cdyn (Monkey [4]): -8%; RL (Monkey [5]): 40%
2 nM and 3.3 nM | CC(C)(C)c1csc(/C=C/c2cccc([C@@H](CCc3ccccc3C(C)(C)O)SCC3(CC(=O)O)CC3)c2)n1 | –
0.6 nM and 0.5 nM | CC(C)(O)c1ccccc1CC[C@@H](SCC1(CC(=O)O)CC1)c1cccc(/C=C/c2nc(C3CCC3)cs2)c1 | –
0.8 nM | CC(C)(O)c1ccccc1CC[C@@H](SCC1(CC(=O)O)CC1)c1cccc(/C=C/c2nc3cc(F)c(F)cc3s2)c1 | –
47.6 nM | COc1ccc2nc(/C=C/c3cccc([C@@H](CCc4ccccc4C(C)(C)O)SCC4(CC(=O)O)CC4)c3)sc2c1 | –
11 nM and 6.7 nM | CC(C)(O)c1ccccc1CC[C@@H](SCC1(CC(=O)O)CC1)c1cccc(/C=C/c2nc(-c3ccccc3)cs2)c1 | –
3.3 nM | CC(C)(O)c1ccccc1CC[C@@H](SCC1(CC(=O)O)CC1)c1cccc(/C=C/c2nc3cc(F)ccc3s2)c1 | pKb (Cavia porcellus): 8.8; PEI (Mus musculus [2]): 120; Weight (Mus musculus [6]): 12%; Cdyn (Monkey [4]): 100%; RL (Monkey [5]): 73%
1.4 nM and 0.8 nM | CC(C)(O)c1ccccc1CC[C@@H](SCC1(CC(=O)O)CC1)c1cccc(/C=C/c2nc(C3CCCC3)cs2)c1 | –
79.3 nM and 99.7 nM | CC(C)(O)c1ccccc1CC[C@@H](SCC1(CC(=O)O)CC1)c1cccc(/C=C/c2nc(-c3ccc(Cl)cc3)cs2)c1 | –
3 nM and 4.6 nM | CC(C)(O)c1ccccc1CC[C@@H](SCC1(CC(=O)O)CC1)c1cccc(/C=C/c2nc3c(s2)CCC3)c1 | –
3.9 nM | CN(C)C(=O)CCS[C@H](SCCC(=O)O)c1cccc(/C=C/c2ccc3ccc(Cl)cc3n2)c1 [VERLUKAST] | pKb (Cavia porcellus): 8.9; PEI (Mus musculus [2]): 65; Weight (Mus musculus [6]): 0%; RL (Monkey [5]): 59%; Cdyn (Monkey [7]): 56%
